Test system: PS19 mice
Assay: Efficacy study in PS19 mice (tauopathy model)
Assay type: in vivo
Details: IP 15 mg/kg once daily, 8 weeks
Experimental: PS19 mice at 33 weeks of age were treated with 1015 (IP, 15 mg/kg) or vehicle [Kolliphor HS-physiological saline (20%:80%)] by a once daily dose schedule for 8 weeks (5 injections per week). (A) Body weight changes during the course of treatment were assessed. (B) The level of Wnt specific target neuroD1 in cortex was determined by qPCR. All the values are the average of from 5-7 mice with the SE values indicated by error bars.* P<0.05, * P<0.01 verse Non-Tg treated with vehicle or PS19 mice treated with vehicle.
(A) PS19 mice at 33 weeks of age were treated with 1015 (IP, 15 mg/kg) or vehicle [Kolliphor HS-physiological saline (20%:80%)] by a once daily dose schedule for 8 weeks (5 injections per week). The levels of tau phosphorylation (p-tau) and total tau in cortex were determined by Western blotting with p-tau antibody AT8, p-tau antibody AT180, and tau antibody HT7, respectively. (B) The intensities of p-tau bands were quantified and normalized to the corresponding signal for actin. The results represented in the histograms are shown as the mean±SE, n=5.
PS19 mice at 33 weeks of age were treated with 1015 (IP, 15 mg/kg) or vehicle [Kolliphor HS-physiological saline (20%:80%)] by a once daily dose schedule for 8 weeks (5 injections per week). (A-D) The levels of cytokines IL6, TNFa, TGF1b and IL1b in cortex were determined by qPCR. All the values are the average of from 5-7 mice with the SE values indicated by error bars. * P<0.05, * P<0.01, ** P<0.001.
1015 activates Wnt/β-catenin signaling and prevents body weight loss in PS19 mice: PS19 is a widely used tauopathy model which recapitulates many AD-related phenotypes. […] Therefore, the PS19 mouse model was used for efficacy studies. There was a noticeable drop in weight in all groups after initiation of daily dosing in each group, which is most likely a consequence of the sudden daily manipulation of the mice (FIG. 17 at A).

## Nc1ccccc1NC(=O)c1ccc(C(=O)NCC2CCN2C2CCCC2)cn1 (stereo not shown) [Compound 1015]
5 injections per week
  body weight loss: significantly prevented
AT8 and AT180
  tau phosphorylation in cortex: significantly suppresses
cortex, qPCR
  neuroD1 expression in brain: restored, but not over induced
  neuroinflammatory cytokine expression (IL6, TNFa, TGF1b, IL1b): inhibited

From US20220267271A1, “WNT ACTIVATORS AND METHODS OF USE” (MAYO FOUNDATION FOR MEDICAL EDUCATION AND RESEARCH, priority 2019, published 2022)
